In the experiment the test system is HCV Replicon IB. Put plainly: HCV replicon assay in Huh-7 cells, genotype 1b (Rluc luciferase readout). The format is cell-based, hepatitis C virus. Particulars: for inhibition at 10 µM: read-out: Inhibition @ 10 uM in 1b-Rluc. In general terms: Replicon systems follow genome replication, usually without infectious particles.
[1] abbreviates: Hepatitis C virus, 72 h, 10 uM, 1b-Rluc replicon, Huh-7 cells, 3 days.
Setting [2] is: Hepatitis C virus, Huh-7, 72 h, HCV1B replicon, Huh-7 cells, 3 days, read-out: EC50_HCV1B_.
[3] abbreviates: HCV1B replicon, Huh-7 cells, 3 days, read-out: EC50_HCV1B_.

Read-outs that look alike come from different tables or passages of the source.

For `CC(C)(C)c1cc(C2CC2)cc2c(N)cc(C(=O)NC[C@@H]3CC4(CN3)OCCO4)nc12` [Compound 332], the EC50 (Hepatitis C virus, Huh-7, 72 h, read-out: EC50_HCV1B_(nM)) was found to be 3.07 nM.

Broadly, the inhibition is the percentage by which the read-out fell short of the control. For `Cc1cc(C(=O)NCC(O)Cc2ccccc2)nc2c(C(F)(F)F)cc(-c3ccccc3)cc12` (stereo not shown) [Compound 169], under setting [1], the inhibition at 10 µM turned out to be 93%.

Take `Cc1cc(C(=O)NCC2CCN2)nc2c(C(F)(F)F)cc(C3CC3)cc12` (stereo not shown) [Compound 125]: the inhibition at 10 µM under setting [1] was determined as 95.2%. As to `Cc1cc(C(=O)NCC2COC2)nc2c(C(C)(C)C)cc(C3CC3)cc12` [Compound 424], the EC50 under setting [2] was 488 nM. As to `Cc1cc(-c2nnc(NCC3COCCN3)o2)nc2c(C(F)(F)F)cc(C3CC3)cc12` (stereo not shown) [Compound 252], the inhibition at 10 µM under setting [1] was found to be 92.7%.

Regarding `Cc1cc(C(=O)NCc2ccccn2)nc2c(C(F)(F)F)cc(N)cc12` [Compound 178], the inhibition at 10 µM under setting [1] was determined as 86.9%. For `Cc1cc(C(=O)NC[C@@H]2CS(=O)(=O)CCN2)nc2c(OC(F)(F)F)cc(C3CC3)cc12` [Compound 441], under setting [2], the EC50 is 12.4 nM. With `Cc1cccnc1CNC(=O)c1cc(C)c2cc(C3CC3)cc(C(F)(F)F)c2n1` [Compound 84], under setting [1], the inhibition at 10 µM turned out to be 99%. Consider `C=Cc1cc(C(=O)NCc2cccs2)nc2c(C(F)(F)F)cc(-c3ccccc3)cc12` [Compound 174], for which the inhibition at 10 µM under setting [1] worked out at 63.6%. On to `CC(C)(C)c1cc(C2CC2)cc2c(N)cc(C(=O)NC[C@H]3CS(=O)(=O)CCN3)nc12` [Compound 335], for which, under setting [2], the EC50 worked out at 3.02 nM. Consider `Cc1cc(C(=O)NCc2ncccn2)nc2c(C(F)(F)F)cc(C3CC3)cc12` [Compound 90], for which the inhibition at 10 µM under setting [1] was determined as 100%. Still for that read-out and setting: to `Cc1cc(-c2nnc(NCCCS(C)(=O)=O)o2)nc2c(C(F)(F)F)cc(C3CC3)cc12` [Compound 269] belongs 87.4%; to `Cc1ccc(CNC(=O)c2cc(C)c3cc(C4CC4)cc(C(F)(F)F)c3n2)nc1` [Compound 85], 100%. On to `Cc1cc(-c2nnc(NCCC(C)(C)O)o2)nc2c(C(C)(C)C)cc(OCC(F)(F)F)cc12` [Compound 449], for which, under setting [2], the EC50 was 11.3 nM. Turning to `O=C(NCC1COCCN1)c1cc(O)c2cc(C3CC3)cc(C(F)(F)F)c2n1` (stereo not shown) [Compound 217], under setting [1], the inhibition at 10 µM was found to be 77%. For the compound `COCCNc1nnc(-c2cc(C)c3cc(OC)cc(C(F)(F)F)c3n2)o1` [Compound 275], the inhibition at 10 µM under setting [1] was determined as 99.7%. For `CCO[C@H]1CN[C@H](CNC(=O)c2cc(N)c3cc(C4CC4)cc(C(C)(C)C)c3n2)C1` [Compound 330], under setting [2], the EC50 worked out at 19.8 nM. Turning to `CCC(O)CNC(=O)c1cc(C)c2cc(-c3ccccc3)cc(C(F)(F)F)c2n1` (stereo not shown) [Compound 165], under setting [1], the inhibition at 10 µM was 96.5%. Still for that read-out and setting: to `O=C(NCc1ccccn1)c1cc(Cl)c2cc(OC(F)(F)F)cc(C(=O)O)c2n1` [Compound 241] belongs 7.94%; to `Cc1cc(C(=O)NCC2CCCCN2)nc2c(C(F)(F)F)cc(C3CC3)cc12` (stereo not shown) [Compound 108], 96.5%. On to `Cc1cc(C(=O)NCC2CC2)nc2c(C(F)(F)F)cc(C3CC3)cc12` [Compound 102], for which the inhibition at 10 µM under setting [1] worked out at 99.7%. Still for that read-out and setting: to `Cc1cc(C(=O)NCc2ccccn2)nc2c(C(F)(F)F)cc(OC3CCCC3)cc12` [Compound 184] belongs 96%; to `CNCCCNc1nnc(-c2cc(C)c3cc(C4CC4)cc(C(F)(F)F)c3n2)s1` [Compound 300], 97.9%. As for `CC(C)(C)c1cc(C2CC2)cc2c(N)cc(-c3nnc(NC[C@@H]4CCCO4)o3)nc12` [Compound 359], under setting [3], the EC50 turned out to be 1.21 nM. Regarding `Cc1cc(C(=O)NCC2OCCCO2)nc2c(C(F)(F)F)cc(C3CC3)cc12` [Compound 82], the inhibition at 10 µM under setting [1] amounted to 100%. On to `CC(C)(C)c1cc(C2CC2)cc2c(N)cc(-c3nnc(NCC4CCCCO4)o3)nc12` (stereo not shown) [Compound 354], for which the EC50 under setting [2] worked out at 15.3 nM. Regarding `Cc1cc(-c2nnc(N[C@H]3CC[C@@](C)(O)CC3)o2)nc2c(C(C)(C)C)cc(OCC(F)(F)F)cc12` [Compound 496], under setting [3], the EC50 was 13.7 nM.

As to `Cc1cc(-c2nnc(NCC3OCCO3)s2)nc2c(C(F)(F)F)cc(C3CC3)cc12` [Compound 297], under setting [1], the inhibition at 10 µM was 100%.

As to `Cc1cc(C(=O)NCc2ccccn2)nc2c(C(F)(F)F)cc(C#N)cc12` [Compound 144], under setting [1], the inhibition at 10 µM was found to be 57.9%. The same measure, in the same setting: to `Nc1cc(C(=O)NCc2cccc(F)n2)nc2c(C(F)(F)F)cc(OC(F)F)cc12` [Compound 195] belongs 99.7%; to `Cc1cc(C(=O)NCc2cnccn2)nc2c(C(F)(F)F)cc(C3CC3)cc12` [Compound 89], 100%. On the same count and under the same terms, to `Cc1cc(C(=O)NC2CNC(C)(C)COC2)nc2c(C(F)(F)F)cc(C3CC3)cc12` (stereo not shown) [Compound 134] belongs 93.1%.

Consider `O=C(NCc1ccccn1)c1cc(C2CC2)c2cc(C3CC3)cc(C(F)(F)F)c2n1` [Compound 214], for which the inhibition at 10 µM under setting [1] worked out at 92.6%. With `C=Cc1cc(C(F)(F)F)c2nc(C(=O)NCc3ccccn3)cc(C)c2c1` [Compound 152], under “Hepatitis C virus, Huh-7, 72 h”, the inhibition at 10 µM came out at 99.9%. As to `CC(C)(C)c1cc(C2CC2)cc2c(N)cc(-c3nnc(NCCCO)o3)nc12` [Compound 365], the EC50 under setting [2] was found to be 4.87 nM. For the compound `Cc1cc(-c2nnc(NCC3COC3)o2)nc2c(C(C)(C)C)cc(OCC(F)(F)F)cc12` [Compound 485], under setting [2], the EC50 is 1050 nM.

Turning to `N#Cc1cc(C(=O)NCc2ccccn2)nc2c(C(F)(F)F)cc(C3CC3)cc12` [Compound 215], the inhibition at 10 µM under setting [1] turned out to be 99.4%. With `Cc1cc(-c2nnc(NCC3OCCO3)o2)nc2c(C3(C)OCCO3)cc(C3CC3)cc12` [Compound 540], the EC50 under setting [2] stood at 36.6 nM. As to `Cc1cc(C(=O)NCC2CCCCN2C(=O)OC(C)(C)C)nc2c(C(F)(F)F)cc(C3CC3)cc12` (stereo not shown) [Compound 107], the inhibition at 10 µM under setting [1] turned out to be 94.5%. On the same count and under the same terms, to `Cc1cc(-c2nnc(NCC(O)CO)s2)nc2c(C(F)(F)F)cc(C3CC3)cc12` (stereo not shown) [Compound 301] belongs 99.6%; to `Cc1cc(C(=O)NCC(C)(C)O)nc2c(C(F)(F)F)cc(C3CC3)cc12` [Compound 93], 99%. The same measure, in the same setting: to `CCC(=O)CNC(=O)c1cc(N)c2cc(C3CC3)cc(C(F)(F)F)c2n1` [Compound 220] belongs 100%. For `Cc1cc(-c2nnc(NCCCN3CCOCC3)s2)nc2c(C(F)(F)F)cc(C3CC3)cc12` [Compound 298], the inhibition at 10 µM under setting [1] amounted to 88%. `Cc1cc(-c2nnc(N[C@H]3C[C@](O)(C(F)F)C3)o2)nc2c(C(C)(C)C)cc(OCC(F)(F)F)cc12` [Compound 468]: the EC50 under setting [2] was found to be 0.36 nM. The same measure, in the same setting: to `Cc1cc(-c2nnc(NCc3ccn[nH]3)o2)nc2c(C(C)(C)C)cc(OCC(F)(F)F)cc12` [Compound 452] belongs 19.6 nM; to `Cc1cc(-c2nnc(N[C@H]3CCOC3)o2)nc2c(C(C)(C)C)cc(OCC(F)(F)F)cc12` [Compound 451], 2.45 nM. As for `O=C(NCc1ccccn1)c1cc(Cl)c2cc(OC(F)(F)F)cc(Br)c2n1` [Compound 236], the inhibition at 10 µM under setting [1] came out at 86.4%. Still for that read-out and setting: to `CNCCCNC(=O)c1cc(C)c2cc(C3CC3)cc(C(F)(F)F)c2n1` [Compound 123] belongs 96.7%. Still for that read-out and setting: to `Cc1cc(C(=O)NCC2(O)CCCC2)nc2c(C(F)(F)F)cc(C3CC3)cc12` [Compound 94] belongs 99.9%; to `O=C(NC[C@@H]1CC(F)(F)CCN1)c1cc(Cl)c2cc(OC(F)F)cc(C(F)(F)F)c2n1` (single isomer, unassigned) [Compound 203], 98.3%. On to `Cc1cc(-c2nnc(N)s2)nc2c(C(C)(C)C)cc(C3CC3)cc12` [Compound 379], for which the EC50 under setting [2] worked out at 1100 nM. As to `CCOCCNc1nnc(-c2cc(C)c3cc(OC)cc(C(F)(F)F)c3n2)o1` [Compound 276], the inhibition at 10 µM under setting [1] amounted to 97.6%. The same measure, in the same setting: to `CC(C)=Cc1cc(C(F)(F)F)c2nc(C(=O)NCc3ccccn3)cc(C)c2c1` [Compound 139] belongs 99.7%.

In the case of `Cc1cc(-c2nnc(NCC[C@@H](C)O)s2)nc2c(C(C)(C)C)cc(C3CC3)cc12` [Compound 386], the EC50 under setting [2] was 1.14 nM.

Regarding `Cc1cc(C(=O)NC[C@@H]2CS(=O)(=O)CCN2)nc2c(C(C)(C)C)cc(OCC(F)(F)F)cc12` [Compound 509], the EC50 under setting [2] came out at 3.61 nM.

Turning to `Cc1cc(-c2nnc(NCC[C@H](C)O)s2)nc2c(C(C)(C)C)cc(C3CC3)cc12` [Compound 403], under setting [3], the EC50 turned out to be 6.52 nM. With `Cc1cc(-c2nnc(NCCCCCO)s2)nc2c(C(F)(F)F)cc(C3CC3)cc12` [Compound 291], the inhibition at 10 µM under setting [1] came out at 99.1%. In the case of `Cc1cc(-c2nnc(N[C@H]3CC[C@H](O)C3)o2)nc2c(C(C)(C)C)cc(OCC(F)(F)F)cc12` (racemic) [Compound 477], the EC50 under setting [2] worked out at 2.22 nM.

Take `CC(C)(C)c1cc(C2CC2)cc2c(NC(=O)CN)cc(-c3nnc(NCC4OCCO4)o3)nc12` [Compound 361]: the EC50 under setting [2] amounted to 7.36 nM. Still for that read-out and setting: to `Cc1nnc(-c2cc(OC(F)(F)F)cc3c(Cl)cc(C(=O)NCc4ccccn4)nc23)o1` [Compound 338] belongs 4710 nM. The same measure, in the same setting: to `CC(C)(C)c1cc(OCC(F)(F)F)cc2c(N)cc(-c3nnc(Nc4ccccn4)o3)nc12` [Compound 520] belongs 0.44 nM; to `Cc1cc(C(=O)NCc2ncccn2)nc2c(OC(F)F)cc(OC(F)F)cc12` [Compound 447], 37.5 nM. `N#Cc1cc(-c2nnc(Nc3ccccc3)o2)nc2c(C(F)(F)F)cc(-c3ccccc3)cc12` [Compound 175]: the inhibition at 10 µM under setting [1] was determined as 89.3%. The same measure, in the same setting: to `Cc1cc(C(=O)NCc2ccccn2)nc2c(C(F)(F)F)cc(OC(F)F)cc12` [Compound 187] belongs 99.9%.

On to `Cc1cc(-c2nnc(NC[C@@H]3CCCO3)o2)nc2c(C(C)(C)C)cc(C3CC3)cc12` [Compound 398], for which the EC50 under setting [2] amounted to 3.69 nM. For `COC1CN[C@H](CNC(=O)c2cc(C)c3cc(C4CC4)cc(C(F)(F)F)c3n2)C1` (single isomer, unassigned) [Compound 127], under setting [1], the inhibition at 10 µM turned out to be 99.7%. Take `Cc1cc(-c2nnc(NCC3O[C@H]4COC[C@H]4O3)o2)nc2c(C(C)(C)C)cc(C3CC3)cc12` (stereo partly shown) [Compound 413]: the EC50 under setting [2] stood at 311 nM.

The record behind these values is patent publication US20120053148A1, “INHIBITORS OF HEPATITIS C VIRUS” (GILEAD SCIENCES, INC., priority 2010, published 2012).
